Test results: patent US20070254887A1, “Pharmaceutical Composition for Transdermal Administration of Perospirone” (priority 2004, published 2007)
Where a name gives a salt, the structure may show the parent alone.

Experiments:
[1] = system: apomorphine-induced stereotypy; assay: Antidopaminergic activities in rat apomorphine-induced stereotypy model; format: in vivo, SD rats; conditions: for Efficacy (positive numbers/total numbers): placebo tape 1 cm × 1 cm
Procedure: […]. The test was carried out according to the description of Jpn. J. Pharmacol. 53, 321-329 (1990).
Specifically, 7-week-old SD rats were dehaired the back on the day before the test, patched the tapes on the back, and further water was administered orally in an amount 5 ml/Kg. After the patching, an apomorphine hydrochloride was administered via tail veins in a dose of 1.25 mg/Kg at predetermined times as assessment times, and stereotypy was observed.
7-Week-old SD rats were dehaired the back on the day before the test, patched the placebo tape (Reference Formulation 1) containing no perospirone prepared in Reference Example 1 on the back, and administered orally perospirone hydrochloride hydrate in a dose of 10 mg/Kg or 2 mg/Kg. Thereafter, an apomorphine hydrochloride was administered via tail veins in a dose of 1.25 mg/Kg at predetermined times as assessment times. An inhibitory effect of an apomorphine-induced behavior was determined in the same manner as Experiment 2.

[2] = system: tryptamine-induced clonic seizures of forepaws; assay: Antiserotonin activities in rat tryptamine-induced clonic seizures of forepaws model; format: in vivo, SD rats; conditions: for Efficacy (positive numbers/total numbers): placebo tape 1 cm × 1 cm
Procedure: Antiserotonin activities of the perospirone tape prepared in Example 14 (Formulation 10) and the perospirone tape prepared in Example 15 (Formulation 11) were assessed in a rat tryptamine-induced clonic seizures of forepaws model. The test was carried out according to the description of Jpn. J. Pharmacol. 53, 321-329 (1990).
Specifically, 7-week-old SD rats were dehaired the back on the day before the test, the tapes were patched on the back, and further water was administered orally in an amount of 5 ml/Kg. After the patching of tapes, a tryptamine hydrochloride was administered via tail veins in a dose of 40 mg/Kg at predetermined times as assessment times, and appearance of a clonic seizures of forepaws was observed.
7-Week-old SD rats were dehaired the back on the day before the test, patched with the placebo tape (Reference Formulation 1) containing no perospirone prepared in Reference Example 1 on the back, and administered orally perospirone hydrochloride hydrate in a dose of 3 mg/Kg or 0.5 mg/Kg. After administrations, a tryptamine hydrochloride was administered via tail veins in a dose of 40 mg/Kg at predetermined times as assessment times. An inhibitory effect of a tryptamine-induced behavior was determined in the same manner as Experiment 1.

[3] = Blood kinetics assessment: serum concentrations of perospirone and ID-15036 after transdermal or oral administration; format: in vivo, SD male rats; conditions: rat, oral administration, first measurement point (FIG. 5)
Procedure: 7-Week-old SD male rats were anesthetized and dehaired the abdomen. The rats were administered with transdermal formulations Formulations 1 to 8 in the sites of the dehaired abdomen and constantly collected blood, and serums were separated. The serums were partitioned and extracted with n-hexane-chloroform (7:3) and about 0.0005M aqueous sodium hydroxide solution, and the organic layers were evaporated and dried to solids. The resulting solids were dissolved, and serum concentrations of perospirone and its main metabolite ID-15036 were determined by quantification via reverse phase high performance liquid chromatography. […]
7-Week-old SD male rats were administered orally with 10 mg/kg of a solution of perospirone hydrochloride hydrate in a distilled water for injection in a concentration of 2 mg/ml, and the blood was collected with lapse of time. Serum concentrations of perospirone and the main metabolite ID-15036 were determined in the same manner as Experiment 3. […]

antiserotonin activity = conditions: rat; cited from earlier work

For O=C1[C@H]2CCCC[C@H]2C(=O)N1CCCCN1CCN(c2nsc3ccccc23)CC1 [perospirone, cis-N-[4-[4-(1,2-benzisothiazol-3-yl)-1-piperazinyl]butyl]cyclohexane-1,2-dicarboximide], the antidopaminergic activities ([1]; oral administration) was “showed antidopaminergic activities 1 and 10 hours after administration but not 48 hours after administration” and the antiserotonin activities ([2]; oral administration, group of 3 mg/Kg) was “antiserotonin activities could not be recognized 10 hours after administration”.
With O=C1[C@H]2CCCC[C@H]2C(=O)N1CCCCN1CCN(c2nsc3ccccc23)CC1 [perospirone hydrochloride hydrate] the “Efficacy (positive numbers/total numbers)” value ([1]; oral 2 mg/Kg, 1 hour after administration) was 2/5, the “Efficacy (positive numbers/total numbers)” value ([1]; oral 10 mg/Kg, 1 hour after administration) was 5/5 and the “Efficacy (positive numbers/total numbers)” value ([1]; oral 10 mg/Kg, 10 hours after administration) was 4/5. The “Efficacy (positive numbers/total numbers)” value ([1]; oral 10 mg/Kg, 48 hours after administration) was 0/5, the “time of maximum serum concentrations after administration” value [3] was 30 min and the “Efficacy (positive numbers/total numbers)” value ([2]; oral 0.5 mg/Kg, 1 hour after administration) was 0/5. For the same molecule, the “Efficacy (positive numbers/total numbers)” value ([2]; oral 3 mg/Kg, 1 hour after administration) was 3/5 and the “Efficacy (positive numbers/total numbers)” value ([2]; oral 3 mg/Kg, 10 hours after administration) was 0/7.
For O=C1C2CCCCC2(O)C(=O)N1CCCCN1CCN(c2nsc3ccccc23)CC1 (centres unmarked) [ID-15036], the “antiserotonin activity compared to perospirone” value (antiserotonin activity) is given as “about ⅛”.
